In general, IC50 refers to the point on the concentration scale where inhibition reaches its midpoint.

Experiment [1] has as its system MDA-MB-231 cells. Put plainly: Apoptosis assay (annexin V, flow cytometry). The following applies: MDA-MB-231. The format is cell-based, human. The procedure: Cell Cycle Assay and Apoptosis Assay: Cell cycle and apoptosis kits (#MCH100106 and #MCH100105, Millipore, Mass.) were used. […] 24 and 48 h after drug treatment, both adherent and floating cells were collected, washed once with PBS and fixed in cold ethanol for at least 4 h before cell cycle analysis. The fixed cells were then washed twice with PBS and resuspended in 200 μL cell cycle detection reagent, incubated for 30 minutes in dark at room temperature. Cell cycle distribution was measured by the Muse Cell Analyzer with Muse™ Cell Cycle. Similarly, MDA-MB-231 cells with the same treatments were prepared for apoptosis assay. After washing with PBS, resuspended cells were incubated with 100 μL PBS containing 1% BSA and 100 μL Annexin V and dead cell detection reagent in dark for 20 minutes at room temperature. Apoptosis was measured immediately using the Muse Cell Analyzer with the Muse™ Apoptosis Program.
A general note: Flow cytometry measures light scatter and fluorescence of single cells or particles in a stream.

Experiment [2] concerns MDA-MB-231 and MDA-MB-468 cells. Put plainly: Colony formation assay. The following applies: 15 days, starting at 0.625 μM. It counts as cell-based, human. The procedure:
Colony Formation Assay: MDA-MB-468 and MDA-MB-231 cells were seeded in 6-well plates with a density of 800-3000 cells/well, respectively. […] The culture media with the compounds were changed every 72 h. After two weeks, the wells were washed twice with PBS buffer and 2 mL of 0.01% crystal violet staining buffer was added and incubated for 10 min. The wells were then washed with PBS for 5 min for three times, and allowed to dry. Photographs were then taken and the density of the entire culture well area was digitally measured using the GelCount™ instrument (Oxford Optronix, UK). Experiments were performed in triplicate and the density data were analyzed with one-way ANOVA using GraphPad Prizm 6 software. Error bars represent standard deviation.

The subject of experiment [3] is STAT3 and pSTAT3 in MDA-MB-231 xenograft tumors. Put plainly: IHC and Western blot of xenograft tumors. It counts as in vivo, mice. The source says:
Immunohistochemistry (IHC): Paraffin blocks of the collected tissue were sectioned into 4 μm thickness and stained with H&E as a reference. All slides were subjected to phospho-STAT3 (Y705) IHC with ABC staining method. Rabbit or mouse IgG ABC kit was purchased from Vector Laboratories (Burlingame, Calif., USA) and ABC staining reagents were purchased from Sigma Aldrich (Louis, Mo., USA). PBS was used instead of primary antibody as a negative control.
A general note: A western blot detects proteins with antibodies after separation by electrophoresis.

Experiment [4] concerns pSTAT3 nuclear translocation in MDA-MB-231 cells. Put plainly: IL-6 induction of STAT3 phosphorylation and nuclear translocation. As to conditions: treatment for 6 h, IL-6 1 h. It counts as cell-based, human. The procedure: IL-6 Induction of STAT3 Phosphorylation and Nuclear Translocation: A total of 5×10^4 MDA-MB-231 cells were seeded into each well of the chamber slides (#154526, Thermo, N.Y.) and cultured overnight. Cells were starved up to 24 h prior to the designated drug treatment. […] After stimulation with IL-6 (50 ng/mL) for 1 h, the culture media were aspirated and followed by DPBS (Gibco, Auckland, NZ) wash twice. Then cells were fixed with 4% paraformaldehyde for 10 min, followed by permeabilization using 100% methanol, blocking buffer for 1 h at room temperature, and incubation with primary antibodies at 4° C. overnight. After incubation with secondary antibody for 1 h, slides were stained with DAPI (Invitrogen, CA) for 5 min, and then anti-fade mounting media added to each chamber. Cells were then analyzed under immunofluorescence microscope with laser-scanning confocal imaging system (Nikon TS100F).

Experiment [5] concerns STAT3 and pSTAT3 in MDA-MB-453 and BT474 cells. The experiment is described as follows: Transient transfection of STAT3 expression vector and Western blot. The format is cell-based, human. As to conditions: 10 μM, 12 h. The procedure: Transient Transfection of STAT3 Expression Vector: Transient transfection was conducted using Fugene HD reagent (Invitrogen, N.Y., USA) per manufacturer's instructions. Briefly, MDA-MB-453 and BT474 cells were seeded in 100 mm^2 culture dishes and incubated overnight. Culture medium was changed to FBS free media 1 h prior to transfection, and 15 μg STAT3C over-expression vector (#24983, Addgene, Mass., USA), 45 μL Fugene HD together with 879 μL opti-MEM (Invitrogen, N.Y.) was added into each dish. Eight hours after transfection, the media was removed and changed to regular media containing 10% FBS. […] After 12 h treatment, total cell lysates were collected and proceeded to Western blot analysis.

The subject of experiment [6] is STAT family, STAT3-dependent genes and JAKs in MDA-MB-468 cells. Put plainly: Western blot analysis, MDA-MB-468 cells. The format is cell-based, human.
For experiment [7], the system named is STAT family, STAT3-dependent genes and JAKs in MDA-MB-231 cells. Put plainly: Western blot analysis, MDA-MB-231 cells. The format is cell-based, human. The procedure:
Blocking STAT3 signaling in many different tumor cells leads to induce growth arrest and apoptosis (Turkson, J. et al., 2000; Bromberg, J., 2002; Zhang, X. et al., 2012).
Western Blot Analysis. Protein levels were determined by Western blot using the previously described methods (Shen, Q. et al., 2008). Total cell lysates were prepared from MDA-MB-231 cells. Protein concentrations were measured using the BCA Protein Assay Reagent (Pierce, Rockford, Ill., USA). Equal amounts of total cellular protein extract (40 μg) were resuspended in denaturing sample loading buffer (0.5 M Tris-HCl, pH 6.8, 10% SDS, 0.1% bromophenol blue, and 20% glycerol), separated by electrophoresis on a 10% polyacrylamide SDS-PAGE gel and then electrophoretically transferred to a nitrocellulose membrane (Thermo Scientific, Ill., USA) at 100 Volts for 1 h at 4° C. The membrane was then incubated in a blocking solution containing 5% non-fat milk and 1% Tween 20 in TBS for 1 h. The membrane was then incubated with antibodies specific for: phospho-STAT3-pY705 (1:3000, Epitomics, #2236-1), STAT3 (1:2000, Cell Signaling, #4904), Caspase-3-cleaved (1:2000, Epitomics, #1476-1), Cyclin D1 (1:10000, Epitomics, #2261-1) and β-actin (1:10000, Sigma, clone AC-15). An anti-rabbit or anti-mouse secondary antibody (Amersham, Piscataway, N.J.) was used at 1:4000 dilution. The Western blotted bands were visualized using ECL procedure according to the manufacturer's instructions (Amersham).

Experiment [8] has as its system MDA-MB-231 xenograft tumors. Put plainly: MDA-MB-231 xenograft tumor growth in nude mice. It counts as in vivo. As to conditions: oral gavage daily for 14 days.
Experiment [9] has as its target STAT3 (Homo sapiens, UniProt P40763). As to conditions: Schust et al. 2006; read-out: IC50, binding to STAT3; cited from earlier work.

Sequence of STAT3 (P40763 whole entry, species assumed): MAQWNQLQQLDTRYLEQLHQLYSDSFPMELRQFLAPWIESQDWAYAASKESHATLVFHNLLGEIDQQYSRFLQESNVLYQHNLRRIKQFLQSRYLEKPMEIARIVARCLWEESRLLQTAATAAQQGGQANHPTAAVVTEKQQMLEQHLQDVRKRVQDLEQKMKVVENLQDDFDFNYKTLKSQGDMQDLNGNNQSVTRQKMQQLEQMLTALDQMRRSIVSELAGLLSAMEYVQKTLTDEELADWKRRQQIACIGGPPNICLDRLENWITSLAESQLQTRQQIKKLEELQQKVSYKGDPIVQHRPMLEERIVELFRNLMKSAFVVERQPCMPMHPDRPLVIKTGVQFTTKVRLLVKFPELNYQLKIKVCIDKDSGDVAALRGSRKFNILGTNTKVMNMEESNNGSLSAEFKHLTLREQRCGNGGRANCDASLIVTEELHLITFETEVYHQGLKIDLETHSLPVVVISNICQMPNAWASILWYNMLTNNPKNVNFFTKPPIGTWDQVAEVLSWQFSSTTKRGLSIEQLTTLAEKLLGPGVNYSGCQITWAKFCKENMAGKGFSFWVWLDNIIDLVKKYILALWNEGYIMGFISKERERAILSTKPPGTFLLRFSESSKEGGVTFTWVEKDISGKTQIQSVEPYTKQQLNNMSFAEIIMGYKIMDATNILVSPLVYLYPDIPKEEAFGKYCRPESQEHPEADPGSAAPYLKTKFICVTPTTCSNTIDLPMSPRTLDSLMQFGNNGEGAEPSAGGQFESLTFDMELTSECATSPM

For `NCCOc1ccc(Cl)cc1C(=O)Nc1ccc([N+](=O)[O-])cc1Cl` [HJC0152], in [1], the “apoptosis at 1 μM” value turned out to be 8% and the “apoptosis at 10 μM” value turned out to be 23%. The colony formation result in experiment [2] is recorded as “significant suppression of colony formation”. Also, the “pSTAT3 (Y705) level in xenograft tumors, IHC” value in [3] (25 mg/kg oral) is reported as “significant effect on reducing pSTAT3 level”. Further, the “STAT3 and pSTAT3 (Y705 and S727) in tumor lysates, Western blot” value in experiment [3] (oral gavage 14 days) is “decreased”. Besides, in [4], the “IL-6 induced nuclear translocation of pSTAT3” value is given as “blocked”. The “STAT3 and pSTAT3 levels after forced expression of STAT3” value in experiment [5] is “significantly decreased”. In experiment [6] (MDA-MB-468), the JAK3 entry is listed as “minimal alterations”, the STAT1 result is reported as “minimal changes” and the “cleaved PARP1” value was “induced from 6 h”. Moreover, the “JAK2 and pJAK2” value in experiment [6] (MDA-MB-468, 12 h, recovered at 24 h) is reported as “transient down-regulation”. For the same compound, the JAK1 protein result in experiment [6] (MDA-MB-468, 12 h and 24 h) was “decreased level”. Moreover, the “Bcl-2 and cyclin D1” value in [6] (MDA-MB-468, from 6 h) is reported as “decreased level”. In experiment [6] (MDA-MB-468, from 6 h, 10 μM), the “pSTAT1 at Y701 and S727” value is given as “down-regulation”. The “STAT5 and pSTAT5 (Y694)” value in experiment [6] (MDA-MB-468, from 12 h, 5 μM) was “decreased level”. In addition, the “STAT3 and pSTAT3” value in [6] (MDA-MB-468, starting at 3 h) is reported as “down-regulation”. Moreover, in experiment [7] (MDA-MB-231), the “JAK1 or pJAK1 (Y1022)” value is “no changes”; the Mcl-1 result was “decrease starting from 6 h”; the “STAT1 and active STAT1 at Y701 or S727” value is listed as “no significant changes”; the “STAT2, STAT4 and STAT6” value was “minimal changes”. For the same compound, in experiment [7] (MDA-MB-231), the “cleaved caspase 3” value is “induced at 12 h” and the “pSTAT3 at S727 residue” value is recorded as “continuous inhibition to 24 h”. The STAT5 result in experiment [7] (MDA-MB-231, 5 and 10 μM) is listed as “transient decrease at 6 h”. In experiment [7] (MDA-MB-231, 12 and 24 h, 5 and 10 μM), the pSTAT5 result is given as “moderate decrease”. Further, in [7] (MDA-MB-231, 6 h, recovered at 24 h), the “pSTAT3 at Y705 residue” value is “significantly decreased”. In addition, the “Bcl-xl protein and cyclin D1” value in experiment [7] (MDA-MB-231, 24 h) was “not altered”. Further, in [7] (MDA-MB-231, from 6 h, 5 μM and 10 μM), the “JAK2 and pJAK2 (Y1007 & Y1008)” value is on record as “apparent down-regulation”. Moreover, the “reduction in tumor growth, 25 mg/kg” value in experiment [8] is recorded as “approximately 80%”.
Consider `O=[N+]([O-])c1ccc2c(c1)S(=O)(=O)C=C2` [Stattic], for which, in experiment [9], the IC50 was 5.1 µM.
